The subject of series [1] is p53 responsive β-lactamase reporter in HCT116 cells. Briefly: cells. The class given is cell-based. The procedure, abridged:
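Read-out used the ToxBLAzer Dual Screen for β-lactamase driven by a stably integrated p53-responsive reporter. Assay: 8000 HCT116 cells per well at 0.5% final DMSO. Reported numbers are geometric means over a minimum of three biological replicates.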

A short description of series [2]: Lactate dehydrogenase (LDH) release assay. The class given is cell-based. The procedure, abridged: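 Membrane damage measured as lactate dehydrogenase release (CytoTox-ONE kit) from p53-responsive β-lactamase reporter HCT116 cells plated at 8000 per well. Final DMSO 0.5%; geometric mean reported from a minimum of three biological replicates.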
A short description of series [3]: Circular dichroism (CD) helicity. The class given is physicochemical. The procedure, abridged:
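Helicity was estimated by CDNN deconvolution of mean residue ellipticity from 190–300 nm spectra taken at 25 °C (0.2 cm path). Samples were 1 mM peptide in 1 mM HEPES pH 7.4/5% methanol, quantified by 280 nm absorbance; values are means of at least duplicate measurements.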

For the next series, the target named is T1, human Mdm2 1–125 (Homo sapiens, UniProt Q00987).
T1 construct: GST (N); His6 (internal); TEV cleavage site (ENLYFQG) (internal); made in house; host or cells: BL21 (DE3) Rosetta T1R Escherichia coli
T1 sequence (Q00987 with tags, fused parts or gaps): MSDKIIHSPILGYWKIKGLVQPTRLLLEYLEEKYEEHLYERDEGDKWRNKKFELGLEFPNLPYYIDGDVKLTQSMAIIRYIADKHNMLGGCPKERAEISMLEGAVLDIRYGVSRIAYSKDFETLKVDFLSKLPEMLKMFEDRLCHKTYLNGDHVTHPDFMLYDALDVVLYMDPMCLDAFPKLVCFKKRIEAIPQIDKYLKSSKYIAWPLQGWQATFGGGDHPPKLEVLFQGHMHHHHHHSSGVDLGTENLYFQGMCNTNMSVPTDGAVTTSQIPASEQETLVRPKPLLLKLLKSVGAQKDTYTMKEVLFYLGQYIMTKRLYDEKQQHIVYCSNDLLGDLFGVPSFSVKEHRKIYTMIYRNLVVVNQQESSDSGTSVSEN
Briefly: Mdm2 binding by competitive fluorescence anisotropy assay (FP binding). Particulars: Tween-20 <CMC. In general terms: Fluorescence polarisation rises when a labelled molecule tumbles more slowly, as on binding a larger partner.

A further series in a line: in vitro. The procedure, abridged: (§1)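 Azido-peptide permeability was read as loss of NanoBRET signal (donor 450 nm, acceptor 610 nm) after adding NanoBret618-azide at 10 μM final.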
The test system of series [4] is cells transiently transfected with the NanoLuc-HaloTag vector. Nature of the series: Nanoclick permeability assay. Particulars: 4Hr. The procedure, abridged: as §1
[5] abbreviates: 0% FBS 4Hr, read-out: p53 reporter assay EC50.
The mark [6] stands for this setting: 10% FBS 16Hr, read-out: p53 reporter assay EC50.

Read-outs that look alike come from different tables or passages of the source. Positions of bridges follow the written chain, without caps; N, C: chain ends. Non-standard residues stand in square brackets, D forms with d. Residues, ends and D or L forms follow the SMILES beside them. dPhe(4-CF3) = N[C@H](Cc1ccc(C(F)(F)F)cc1)C(=O)O; dTrp(6-F) = N[C@H](Cc1c[nH]c2cc(F)ccc12)C(=O)O; R5 = C=CCCC[C@@](C)(N)C(=O)O A value given as a limit tells only on which side of the number the result lay.

As to `CC(=O)N[C@@H](C(=O)N[C@H](C)C(=O)N[C@H](Cc1c[nH]c2cc(F)ccc12)C(=O)N[C@H](Cc1ccc(O)cc1)C(=O)N[C@H](C)C(=O)N[C@]1(C)CCCC=CCCC[C@](C)(C(=O)N[C@H](CC(C)C)C(=O)N[C@H](CO)C(=O)N[C@H](C)C(=O)N[C@H](C)C(=O)N[C@H](C)C(N)=O)NC(=O)[C@@H](CCC(N)=O)NC(=O)[C@@H](CCC(=O)O)NC(=O)[C@@H](Cc2ccc(C(F)(F)F)cc2)NC1=O)[C@H](C)O` [MP-0230] (Ac-[dT][dA][dTrp(6-F)][dY][dA][R5][dPhe(4-CF3)][dE][dQ][R5][dL][dS][dA][dA][dA]-NH2; staple 6-10), the results for the “p53 reporter assay % Effect” value in series [1] (0% FBS 4Hr) and in series [1] (10% FBS 16Hr) were 96.81% and 84.65%, respectively. For the same compound, the EC50 (in general, the concentration needed to bring the measured effect to its halfway point) was 1.44 µM in series [1] (setting [5]), 4.34 µM in series [1] (setting [6]) and greater than 50.7 µM in series [2] (LDH: Cytotoxicity assay EC50). Moreover, the “CD % Helicity” value in series [3] came to 49.95%. The Kd (usually the equilibrium constant for the complex coming apart) on human Mdm2 1–125 (read-out: FP binding assay KD) was found to be 0.00311 µM. For the same compound, the cell entry EC50 in the series “in vitro” (Nanoclick permeability assay EC50) is greater than 10 µM. Further, the “Nanoclick permeability assay % Effect” value in series [4] is on record as 30.67%.
With `CC(=O)N[C@@H](C(=O)N[C@H](C)C(=O)N[C@H](Cc1c[nH]c2cc(F)ccc12)C(=O)N[C@H](Cc1ccc(O)cc1)C(=O)N[C@H](C)C(=O)N[C@]1(C)CCCC=CCCC[C@](C)(C(=O)N[C@H](CC(C)C)C(=O)N[C@H](CO)C(N)=O)NC(=O)[C@@H](CCC(N)=O)NC(=O)[C@@H](CCC(=O)O)NC(=O)[C@@H](Cc2ccc(C(F)(F)F)cc2)NC1=O)[C@H](C)O` [MP-797] (Ac-[dT][dA][dTrp(6-F)][dY][dA][R5][dPhe(4-CF3)][dE][dQ][R5][dL][dS]-NH2; staple 6-10), the “p53 reporter assay % Effect” value in series [1] (0% FBS 4Hr) stood at 74.63%; in series [1] (10% FBS 16Hr) it was 8.593%. The EC50 is 3.61 µM in series [1] (setting [5]); greater than 50.4 µM in series [1] (setting [6]); 3.6 µM in series [1] (read-out: Cell EC50 (4 hr, 0% FBS), p53 reporter assay, 4 hr, 0% FBS); greater than 50 µM in series [1] (read-out: Cell EC50 (16 hr, 10% FBS), p53 reporter assay, 16 hr, 10% FBS); greater than 50.7 µM in series [2] (0% FBS 4Hr, read-out: LDH: Cytotoxicity assay EC50); greater than 50.7 µM in series [2] (10% FBS 16Hr, read-out: LDH: Cytotoxicity assay EC50). In addition, in series [2] (4 hours, 0% serum, read-out: LDH Cytotoxicity assay EC50), the EC50 was greater than 50 µM. Further, the “improvement of cellular activity vs MP-769” value in series [1] (0% serum, 4-hour assay) is 3 fold. The “CD % Helicity” value in series [3] was 26.6%. At human Mdm2 1–125 (FP binding assay KD), this compound had a dissociation constant (Kd) of 0.258 µM. The cell entry EC50 in “in vitro” was greater than 10 µM. In series [4], the “Nanoclick permeability assay % Effect” value was 69.79%.

(Values after article PMC10786919, “Design-rules for stapled peptides with in vivo activity and their application to Mdm2/X antagonists” (Nature Communications, 2024).)
